Measured values from ChEMBL document CHEMBL6153170 (J Med Chem, 2025).
Converted amounts (≈) assume the structure as drawn. The source made the active and inactive calls. No cut-off for these calls is given here.

Columns and labels:
[1] = Aqueous solubility of compound incubated for 24 hrs by miniaturized shake flask based HPLC analysis; assay type: physicochemical; details: buffer
B16-F10 [2] = test: Antitumor immunity activity against mouse B16-F10 cells implanted in C57BL/6 mouse model assessed as CD3+ CD8+ T cell percentage in tumor at 20 mg/kg/day, ip administered for 14 days by flow cytometric analysis (reference value: 0.52 %); assay type: functional; details: time 14 day
[3] = In vivo inhibition of PD-L1 in C57BL/6 mouse model implanted with mouse B16-F10 cells assessed as reduction in PD-L1 protein expression in tumor at 20 mg/kg/day, ip administered for 14 days by Western blot analysis relative to control; assay type: functional; details: C57BL/6, B16-F10, 336 h, time 14 day
[4] = target: T1, Protein deacetylase HDAC6 (Mus musculus) (UniProt Q9Z2V5); test: In vivo inhibition of HDAC6 in C57BL/6 mouse model implanted with mouse B16-F10 cells assessed as increase in acetylated alpha-tubulin protein level in tumor at 20 mg/kg/day, ip administered for 14 days by Western blot analysis; assay type: functional, organism-based; details: time 14.0 day
T1 sequence (whole entry): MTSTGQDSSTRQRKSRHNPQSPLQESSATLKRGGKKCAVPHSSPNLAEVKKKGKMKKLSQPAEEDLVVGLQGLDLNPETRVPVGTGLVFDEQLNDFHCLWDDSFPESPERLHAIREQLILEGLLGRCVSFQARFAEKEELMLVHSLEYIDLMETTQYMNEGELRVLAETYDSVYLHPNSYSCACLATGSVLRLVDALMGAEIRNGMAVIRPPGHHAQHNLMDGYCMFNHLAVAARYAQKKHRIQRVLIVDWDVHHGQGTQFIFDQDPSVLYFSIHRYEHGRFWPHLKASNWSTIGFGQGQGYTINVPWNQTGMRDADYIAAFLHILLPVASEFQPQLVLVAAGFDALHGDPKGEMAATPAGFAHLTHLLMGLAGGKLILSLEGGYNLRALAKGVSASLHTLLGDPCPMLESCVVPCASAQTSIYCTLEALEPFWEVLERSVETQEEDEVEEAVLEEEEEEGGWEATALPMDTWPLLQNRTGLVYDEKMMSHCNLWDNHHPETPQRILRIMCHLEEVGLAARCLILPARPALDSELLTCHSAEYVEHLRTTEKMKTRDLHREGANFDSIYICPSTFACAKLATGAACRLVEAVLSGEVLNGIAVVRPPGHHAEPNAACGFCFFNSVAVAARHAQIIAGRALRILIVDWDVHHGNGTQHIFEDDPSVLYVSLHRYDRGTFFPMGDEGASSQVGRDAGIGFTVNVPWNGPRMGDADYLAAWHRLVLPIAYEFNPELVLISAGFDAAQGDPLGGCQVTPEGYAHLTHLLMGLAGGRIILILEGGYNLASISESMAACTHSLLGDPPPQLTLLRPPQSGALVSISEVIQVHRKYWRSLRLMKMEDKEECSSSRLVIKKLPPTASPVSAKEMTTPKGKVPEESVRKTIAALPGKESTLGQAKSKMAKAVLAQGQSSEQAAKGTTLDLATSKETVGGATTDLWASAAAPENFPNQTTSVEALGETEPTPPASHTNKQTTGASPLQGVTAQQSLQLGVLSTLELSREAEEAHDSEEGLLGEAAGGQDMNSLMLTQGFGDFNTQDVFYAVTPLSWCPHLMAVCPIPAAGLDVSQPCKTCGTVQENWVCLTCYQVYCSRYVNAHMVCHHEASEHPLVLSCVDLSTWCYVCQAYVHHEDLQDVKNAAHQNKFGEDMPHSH

B16-F10 [5] = test: Antitumor activity against mouse B16-F10 cells implanted in C57BL/6 mouse model assessed as tumor growth inhibition at 20 mg/kg/day, ip administered for 14 days relative to control; assay type: functional; details: B16-F10, 336 h, time 14 day, read-out: TGI
B16-F10 [6] = test: Antitumor immunity activity against mouse B16-F10 cells implanted in C57BL/6 mouse model assessed as CD3+ CD4+ T cell percentage in tumor at 20 mg/kg/day, ip administered for 14 days by flow cytometric analysis (reference value: 0.095 %); assay type: functional; details: time 14 day
B16-F10 [7] = test: cells; details: Mus musculus, B16-F10, 48 h
Jurkat [8] = test: cells; details: Homo sapiens, 72 h
Histone deacetylase 8 = target: T2, Histone deacetylase 8 (Homo sapiens, UniProt Q9BY41); test: Inhibition of C-terminal His-tagged recombinant full length human HDAC8 extracted from baculovirus infected Sf9 insect cells preincubated for 5 mins followed by substrate addition and measured after 30 mins by fluorescence microplate reader analysis
T2 sequence (Q9BY41 whole entry): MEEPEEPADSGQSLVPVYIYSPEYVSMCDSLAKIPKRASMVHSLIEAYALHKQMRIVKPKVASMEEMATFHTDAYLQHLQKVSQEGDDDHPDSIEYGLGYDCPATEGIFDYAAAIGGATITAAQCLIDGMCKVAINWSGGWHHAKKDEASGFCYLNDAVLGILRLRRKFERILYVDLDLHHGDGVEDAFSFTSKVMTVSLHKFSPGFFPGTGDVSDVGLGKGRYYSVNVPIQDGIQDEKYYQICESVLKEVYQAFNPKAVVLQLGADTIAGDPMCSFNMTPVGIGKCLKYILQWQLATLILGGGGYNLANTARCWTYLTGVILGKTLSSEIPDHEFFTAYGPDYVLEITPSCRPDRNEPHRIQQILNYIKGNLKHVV

MCF7 = test: cells; details: Homo sapiens, MCF7, 48 h
Histone deacetylase 7 = target: T3, Histone deacetylase 7 (Homo sapiens, UniProt Q8WUI4); test: Inhibition of N-terminal GST-tagged recombinant human HDAC7 (501 to 952 residues) extracted from baculovirus expression system using Ac-Leu-Gly-Lys (Tfa)-AMC as substrate preincubated for 5 mins followed by substrate addition and measured after 30 mins by fluorescence microplate reader analysis
T3 sequence (Q8WUI4 whole entry): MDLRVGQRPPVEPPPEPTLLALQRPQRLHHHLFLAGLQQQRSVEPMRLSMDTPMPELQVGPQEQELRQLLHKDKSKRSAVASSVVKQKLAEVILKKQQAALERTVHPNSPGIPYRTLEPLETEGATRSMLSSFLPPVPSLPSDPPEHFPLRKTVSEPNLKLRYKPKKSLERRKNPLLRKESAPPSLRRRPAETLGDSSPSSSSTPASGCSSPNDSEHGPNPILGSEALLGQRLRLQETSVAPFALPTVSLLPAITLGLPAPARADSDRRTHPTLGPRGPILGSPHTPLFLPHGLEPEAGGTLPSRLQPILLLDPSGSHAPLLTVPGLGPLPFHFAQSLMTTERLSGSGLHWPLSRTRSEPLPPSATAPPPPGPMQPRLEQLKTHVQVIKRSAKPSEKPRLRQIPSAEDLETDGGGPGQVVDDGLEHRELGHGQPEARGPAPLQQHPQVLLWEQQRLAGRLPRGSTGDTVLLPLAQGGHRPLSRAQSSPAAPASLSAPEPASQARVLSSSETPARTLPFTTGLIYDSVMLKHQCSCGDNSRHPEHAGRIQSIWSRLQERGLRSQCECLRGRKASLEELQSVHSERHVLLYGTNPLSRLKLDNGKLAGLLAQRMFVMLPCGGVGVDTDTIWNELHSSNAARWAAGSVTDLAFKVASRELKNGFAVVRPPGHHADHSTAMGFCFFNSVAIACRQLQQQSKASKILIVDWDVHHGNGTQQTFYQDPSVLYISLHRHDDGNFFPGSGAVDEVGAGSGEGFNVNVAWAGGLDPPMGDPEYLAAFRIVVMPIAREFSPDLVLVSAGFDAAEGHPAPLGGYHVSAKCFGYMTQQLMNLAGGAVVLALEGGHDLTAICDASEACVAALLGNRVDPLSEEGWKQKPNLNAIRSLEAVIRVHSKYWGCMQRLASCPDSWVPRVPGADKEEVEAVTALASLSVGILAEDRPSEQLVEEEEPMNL

HepG2 = test: cells; details: Homo sapiens, HepG2, 48 h
[9] = target: Programmed cell death protein 1/Programmed cell death 1 ligand 1 (Homo sapiens, UniProt Q9NZQ7); test: Inhibition of PD-1/PD-L1 (unknown origin) protein-protein interaction by HTRF assay; assay type: protein-complex assay
Histone deacetylase 1 = Histone deacetylase 1 (Homo sapiens, UniProt Q13547); test: Inhibition of recombinant full-length human HDAC1 (1 to 482 residues) extracted from baculovirus expression system using Ac-Leu-Gly-Lys (Ac)-AMC as substrate preincubated for 5 mins followed by substrate addition and measured after 30 mins by fluorescence microplate reader analysis
B16-F10 [10] = test: Downregulation of p-STAT3 expression level in mouse B16-F10 cells at 0.1 to 2 uM incubated for 24 hrs by Western blot analysis; assay type: functional, cell-based; details: dose 0.1-2 µM
[11] = target: T1, Protein deacetylase HDAC6 (Mus musculus); test: Inhibition of HDAC6 in mouse B16-F10 cells assessed as increase in acetylated alpha-tubulin level incubated for 12 hrs by Western blot analysis; assay type: cell-based; details: dose 0.1-2 µM
Jurkat [12] = test: Effect on HDAC6 protein level in human Jurkat T cells at 0.1 to 2 uM incubated for 12 hrs by Western blot analysis; assay type: functional, cell-based; details: dose 0.1-2 µM
B16-F10 [13] = test: Effect on HDAC6 protein level in mouse B16-F10 cells at 0.1 to 2 uM incubated for 12 hrs by Western blot analysis; assay type: functional, cell-based; details: dose 0.1-2 µM
B16-F10 [14] = test: Effect on STAT3 expression level in mouse B16-F10 cells at 0.1 to 2 uM incubated for 24 hrs by Western blot analysis; assay type: functional, cell-based; details: dose 0.1-2 µM
B16-F10 [15] = test: Downregulation of PD-L1 expression level in mouse B16-F10 cells at 0.1 to 2 uM incubated for 24 hrs by Western blot analysis; assay type: functional, cell-based; details: dose 0.1-2 µM
B16-F10 [16] = test: Upregulation of acetylated histone H3 protein level in mouse B16-F10 cells at 0.1 to 2 uM incubated for 12 hrs by Western blot analysis; assay type: functional, cell-based; details: dose 0.1-2 µM
Jurkat [17] = test: Upregulation of acetylated histone H3 protein level in human Jurkat T cells at 0.1 to 2 uM incubated for 12 hrs by Western blot analysis; assay type: functional, cell-based; details: dose 0.1-2 µM

Sequence of Programmed cell death protein 1/Programmed cell death 1 ligand 1 (Q15116 whole entry, the tested form may be a part): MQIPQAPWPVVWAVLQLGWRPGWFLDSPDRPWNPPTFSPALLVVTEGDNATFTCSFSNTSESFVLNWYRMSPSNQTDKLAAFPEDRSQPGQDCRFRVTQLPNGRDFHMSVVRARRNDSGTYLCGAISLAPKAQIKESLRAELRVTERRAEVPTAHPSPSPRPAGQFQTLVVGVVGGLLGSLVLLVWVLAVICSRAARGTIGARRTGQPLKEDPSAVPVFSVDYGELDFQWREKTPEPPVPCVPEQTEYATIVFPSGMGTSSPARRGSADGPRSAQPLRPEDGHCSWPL
Sequence of Programmed cell death protein 1/Programmed cell death 1 ligand 1 (Q9NZQ7 whole entry, the tested form may be a part): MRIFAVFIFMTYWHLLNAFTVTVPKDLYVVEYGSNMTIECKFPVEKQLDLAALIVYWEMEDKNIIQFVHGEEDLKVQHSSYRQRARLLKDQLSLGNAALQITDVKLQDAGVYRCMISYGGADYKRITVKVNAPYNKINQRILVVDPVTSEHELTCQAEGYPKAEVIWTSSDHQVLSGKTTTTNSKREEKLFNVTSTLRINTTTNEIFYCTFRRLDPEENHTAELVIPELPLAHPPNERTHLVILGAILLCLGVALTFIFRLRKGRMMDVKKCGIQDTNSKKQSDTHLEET
Sequence of Histone deacetylase 1 (Q13547 whole entry, the tested form may be a part): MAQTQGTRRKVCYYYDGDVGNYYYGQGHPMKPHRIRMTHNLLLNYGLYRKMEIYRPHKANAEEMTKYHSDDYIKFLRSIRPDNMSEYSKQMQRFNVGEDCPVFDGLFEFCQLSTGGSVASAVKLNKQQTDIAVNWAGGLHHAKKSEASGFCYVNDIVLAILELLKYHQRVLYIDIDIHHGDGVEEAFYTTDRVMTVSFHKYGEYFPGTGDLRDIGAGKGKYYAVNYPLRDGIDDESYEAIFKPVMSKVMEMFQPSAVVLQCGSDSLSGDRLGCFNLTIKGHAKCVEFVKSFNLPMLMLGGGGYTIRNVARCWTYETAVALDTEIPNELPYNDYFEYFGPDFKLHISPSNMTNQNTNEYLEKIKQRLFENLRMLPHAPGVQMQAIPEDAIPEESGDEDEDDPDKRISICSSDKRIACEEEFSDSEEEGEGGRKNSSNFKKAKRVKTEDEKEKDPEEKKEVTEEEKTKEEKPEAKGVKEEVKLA

SMILES | IC50 (B16-F10 [7]) [µM] | IC50 (Jurkat [8]) [µM] | IC50 (Histone deacetylase 8) [µM] | IC50 (MCF7) [µM] | IC50 (Histone deacetylase 7) [µM] | IC50 (HepG2) [µM] | IC50 [9] [µM] | other results
COc1nc(OCc2cccc(-c3ccccc3)c2C)ccc1CNCCNC(C)=O |  |  |  |  |  |  |  | solubility thermodynamic at 24 h [1]: 38.3 µg/mL (≈ 91.3 µM)
Cc1c(COc2cc(OCc3cccc(C#N)c3)c(CNC(C)(C)C(=O)O)cc2Cl)cccc1-c1ccccc1 |  |  |  |  |  |  |  | Activity (B16-F10 [2]): 4.99%; inhibition in vivo at 20 mg/kg/day [3]: ~50%; inhibition [4]: inactive; inhibition in vivo at 20 mg/kg/day (B16-F10 [5]): 43.2%; Activity (B16-F10 [6]): 3.41%
COc1nc(-c2cccc(-c3ccccc3)c2C)ccc1CNCC(=O)NO | 8.5 | 9 | > 10 | > 10 | 10 | > 10 | 0.0163 | 
COc1nc(OCc2cccc(-c3ccccc3)c2C)ccc1CNCCCCCCC(=O)NO | > 10 | > 10 | > 10 | > 10 | > 100 | > 10 | 0.0592 | 
COc1nc(OCc2cccc(-c3ccccc3)c2C)ccc1CNCCCCC(=O)NO | > 10 | > 10 | > 10 | > 10 | > 100 | 9.7 | 0.1 | IC50 (Histone deacetylase 1): > 10 µM
COc1nc(-c2cccc(-c3ccccc3)c2C)ccc1CNCCCCC(=O)NO | > 10 | > 10 | > 10 | > 10 | > 100 | 9.7 | 0.0792 | 
O=C(CCCCCCNC(=O)c1cnc(N(c2ccccc2)c2ccccc2)nc1)NO [RICOLINOSTAT] | > 10 | 6.7 |  | 8.3 |  | 7.9 |  | Activity (B16-F10 [2]): 1.04%; Activity (B16-F10 [10]): Active; inhibition in vivo at 20 mg/kg/day [3]: ~30%; inhibition [4]: Active; inhibition in vivo at 20 mg/kg/day (B16-F10 [5]): 45.6%; inhibition [11]: Dose-dependent-effect; Activity (Jurkat [12]): inactive; Activity (B16-F10 [13]): inactive; Activity (B16-F10 [14]): inactive; Activity (B16-F10 [6]): 2.62%; Activity (B16-F10 [15]): Active
COc1nc(-c2cccc(-c3ccccc3)c2C)ccc1CNCCCC(=O)NO |  |  | > 10 |  | > 100 |  | 0.0208 | 
O=C(CCCCCCC(=O)Nc1ccccc1)NO |  |  |  |  |  |  |  | Activity (B16-F10 [16]): Active; Activity (Jurkat [17]): Active
